Source: ChEMBL document CHEMBL1156135 (Bioorg Med Chem Lett, 2009)

Key:
[1] = Antiproliferative activity against human WM266.4 cells expressing b-Raf V600E mutant; type: functional, cell-based; conditions: WM 266-4
A-375 = assay: Antiproliferative activity against human A375 cells expressing b-Raf V600E mutant; type: functional, cell-based
[2] = molecular target: Serine/threonine-protein kinase B-raf (Homo sapiens, UniProt P15056); assay: Inhibition of B-Raf
[3] = Therapeutic index, ratio of IC50 for human Caco-2 cells expressing wild type b-Raf to IC50 for human A375 cells expressing b-Raf V600E mutant; type: cell-based; conditions: read-out: Ratio IC50
[4] = Therapeutic index, ratio of IC50 for human Caco-2 cells expressing wild type b-Raf to IC50 for human WM266.4 cells expressing b-Raf V600E mutant; type: cell-based; conditions: read-out: Ratio IC50
[5] = Selectivity for B-raf over p38alpha
Caco-2 = assay: Antiproliferative activity against human Caco-2 cells expressing wild type b-Raf; type: functional, cell-based

Chain of Serine/threonine-protein kinase B-raf (P15056 whole entry): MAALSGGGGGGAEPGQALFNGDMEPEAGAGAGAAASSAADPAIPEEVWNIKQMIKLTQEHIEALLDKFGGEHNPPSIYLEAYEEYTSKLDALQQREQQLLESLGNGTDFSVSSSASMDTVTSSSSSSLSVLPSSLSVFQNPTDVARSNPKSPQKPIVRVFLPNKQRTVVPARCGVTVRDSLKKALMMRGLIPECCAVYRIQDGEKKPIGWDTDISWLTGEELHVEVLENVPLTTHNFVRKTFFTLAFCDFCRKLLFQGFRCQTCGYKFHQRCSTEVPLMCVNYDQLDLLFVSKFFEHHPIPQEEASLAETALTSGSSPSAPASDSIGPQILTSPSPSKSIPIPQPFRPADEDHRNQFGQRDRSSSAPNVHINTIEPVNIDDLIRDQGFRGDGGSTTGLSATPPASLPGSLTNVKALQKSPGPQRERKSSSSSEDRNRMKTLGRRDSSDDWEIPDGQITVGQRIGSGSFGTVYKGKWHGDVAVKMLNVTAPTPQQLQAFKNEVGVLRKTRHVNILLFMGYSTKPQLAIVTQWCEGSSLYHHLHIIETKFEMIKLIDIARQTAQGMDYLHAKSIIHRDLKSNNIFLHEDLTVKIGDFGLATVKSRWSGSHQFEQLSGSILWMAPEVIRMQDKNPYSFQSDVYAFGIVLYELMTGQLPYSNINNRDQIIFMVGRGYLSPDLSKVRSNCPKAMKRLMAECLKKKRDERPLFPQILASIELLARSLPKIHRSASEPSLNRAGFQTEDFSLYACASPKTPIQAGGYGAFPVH

SMILES | IC50 [1] [nM] | IC50 (A-375) [nM] | IC50 [2] [nM] | other results
Oc1cccc(-c2c(-c3ccncc3)nn3c(C4CC5CCC(C4)N5)ccnc23)c1 (stereo unspecified) | 220 | 2250 |  | 
COc1cc(-c2c(-c3ccncc3)nn3c(C4CC5CCC(C4)N5)ccnc23)ccc1Cl (stereo unspecified) | 3500 | 2600 | 8.5 | 
CCOC(=O)N1C2CCC1CC(c1ccnc3c(-c4ccc(C)c(O)c4)c(-c4ccncc4)nn13)C2 (stereo unspecified) | 230 | 570 |  | 
CCOC(=O)N1C2CCC1CC(c1ccnc3c(-c4cccc(OC)c4)c(-c4ccncc4)nn13)C2 (stereo unspecified) | 8000 | 9000 |  | 
CC(=O)N1C2CCC1CC(c1ccnc3c(-c4cccc5[nH]ncc45)c(-c4ccncc4)nn13)C2 (stereo unspecified) | 1800 | 2540 |  | 
CN1C2CC(CO)C1Cc1cnc3c(-c4ccc(Cl)c(O)c4)c(-c4ccncc4)nn3c12 (stereo unspecified) | 750 | 1700 | 0.6 | 
CCNC(=O)N1C2CCC1CC(c1ccnc3c(-c4cccc5[nH]ncc45)c(-c4ccncc4)nn13)C2 (stereo unspecified) | 1520 | 2810 |  | 
CCOC(=O)N1C2CCC1CC(c1ccnc3c(-c4cccc5[nH]ccc45)c(-c4ccncc4)nn13)C2 (stereo unspecified) |  |  | > 1000 | 
CCOC(=O)N1C2CCC1CC(c1ccnc3c(-c4ccc(-c5nnco5)cc4)c(-c4ccncc4)nn13)C2 (stereo unspecified) |  |  | 151 | 
CN(C)C(=O)N1C2CCC1CC(c1ccnc3c(-c4cccc5[nH]ncc45)c(-c4ccncc4)nn13)C2 (stereo unspecified) | 2140 | 3000 |  | 
CCOC(=O)N1C2CCC1CC(c1ccnc3c(-c4ccc5c(c4)NC(=O)C5)c(-c4ccncc4)nn13)C2 (stereo unspecified) |  |  | > 1000 | 
CCOC(=O)N1C2CCC1CC(c1ccnc3c(-c4ccc(Cl)c5[nH]ncc45)c(-c4ccncc4)nn13)C2 (stereo unspecified) | 280 | 580 | 0.4 | selectivity ratio [3]: 9.4; selectivity ratio [4]: 19.3
CCOC(=O)N1C2CCC1CC(c1ccnc3c(-c4cccc(O)c4)c(-c4ccncc4)nn13)C2 (stereo unspecified) | 240 |  |  | 
O=C(O)[C@H]1CCCN1C(=O)N1C2CCC1CC(c1ccnc3c(-c4cccc5[nH]ncc45)c(-c4ccncc4)nn13)C2 (stereo partly specified) | 1860 | 5940 | 2.1 | 
CCOC(=O)N1C2CCC1CC(c1c(C)cnc3c(-c4cccc5[nH]ncc45)c(-c4ccncc4)nn13)C2 (stereo unspecified) | 1870 | 1220 | 8.4 | 
CCN1C2CCC1CC(c1ccnc3c(-c4ccc(F)c(O)c4)c(-c4ccncc4)nn13)C2 (stereo unspecified) | 450 | 760 |  | 
CCN1C2CCC1CC(c1ccnc3c(-c4ccc(Cl)c(OC)c4)c(-c4ccncc4)nn13)C2 (stereo unspecified) | 5600 | 2200 |  | 
CCOC(=O)N1C2CCC1CC(c1ccnc3c(-c4ccc(F)c(F)c4)c(-c4ccncc4)nn13)C2 (stereo unspecified) |  |  | 302 | 
CC(C)N1C2CCC1CC(c1ccnc3c(-c4cccc5[nH]ncc45)c(-c4ccncc4)nn13)C2 (stereo unspecified) | 1750 | 1960 |  | 
COC(=O)C1CC2c3c(cnc4c(-c5ccc(Cl)c(O)c5)c(-c5ccncc5)nn34)CC1N2C (stereo unspecified) | 1100 | 2300 | 1.6 | 
CCOC(=O)N1C2CCC1CC(c1ccnc3c(-c4ccc(C)c5[nH]ncc45)c(-c4ccncc4)nn13)C2 (stereo unspecified) | 670 | 1000 |  | 

SMILES | IC50 [1] [nM] | IC50 (A-375) [nM] | IC50 [2] [nM] | other results
CCOC(=O)N1C2CCC1CC(c1ccnc3c(-c4ccc(Cl)c(OC)c4)c(-c4ccncc4)nn13)C2 (stereo unspecified) | > 10000 |  |  | 
CCN1C2CCC1CC(c1ccnc3c(-c4ccc(C(F)(F)F)c5[nH]ncc45)c(-c4ccncc4)nn13)C2 (stereo unspecified) | 2900 | 1700 | 45 | 
CS(=O)(=O)N1C2CCC1CC(c1ccnc3c(-c4cccc5[nH]ncc45)c(-c4ccncc4)nn13)C2 (stereo unspecified) | 570 | 950 |  | 
CCOC(=O)N1C2CCC1CC(c1ccnc3c(-c4ccc5cc[nH]c5c4)c(-c4ccncc4)nn13)C2 (stereo unspecified) | > 10000 | 7500 |  | 
COc1cccc(-c2c(-c3ccncc3)nn3c(C4CC5CCC(C4)N5)ccnc23)c1 (stereo unspecified) | 8400 | 6400 |  | 
CCN1C2CCC1CC(c1ccnc3c(-c4cccc5[nH]ncc45)c(-c4ccncc4)nn13)C2 (stereo unspecified) | 2400 | 2900 | 46.6 | 
CCOC(=O)N1C2CCC1CC(c1ccnc3c(-c4cccc5[nH]c(=O)[nH]c45)c(-c4ccncc4)nn13)C2 (stereo unspecified) |  |  | > 1000 | 
CCOC(=O)N1C2CCC1CC(c1ccnc3c(-c4ccc(F)c5[nH]ncc45)c(-c4ccncc4)nn13)C2 (stereo unspecified) | 300 | 620 |  | selectivity ratio [3]: 5.8; selectivity ratio [4]: 12; Ratio [5]: 19
Oc1cc(-c2c(-c3ccncc3)nn3c(C4CC5CCC(C4)N5)ccnc23)ccc1Cl (stereo unspecified) | 90 | 440 |  | 
CCN1C2CCC1CC(c1ccnc3c(-c4ccc(C#N)c(O)c4)c(-c4ccncc4)nn13)C2 (stereo unspecified) | > 10000 | > 10000 |  | 
CN1C2CC(S(=O)(=O)c3ccccc3)C1Cc1cnc3c(-c4ccc(Cl)c(O)c4)c(-c4ccncc4)nn3c12 (stereo unspecified) | 600 | 1000 | 0.8 | 
OCCN1C2CCC1CC(c1ccnc3c(-c4cccc5[nH]ncc45)c(-c4ccncc4)nn13)C2 (stereo unspecified) | 1370 | 3440 |  | 
CC(=O)N1C2CCC1CC(c1ccnc3c(-c4ccc(Cl)c(O)c4)c(-c4ccncc4)nn13)C2 (stereo unspecified) | 260 | 900 |  | 
CCOC(=O)N1C2CCC1CC(c1ccnc3c(-c4ccc(Cl)c(O)c4)c(-c4ccncc4)nn13)C2 (stereo unspecified) | 120 |  | < 2 | 
CCN1C2CCC1CC(c1ccnc3c(-c4ccc(C)c5[nH]ncc45)c(-c4ccncc4)nn13)C2 (stereo unspecified) | 840 | 1600 |  | 
CCOC(=O)N1C2CCC1CC(c1ccnc3c(-c4cccc5[nH]ncc45)c(-c4ccncc4)nn13)C2 (stereo unspecified) | 300 | 380 |  | selectivity ratio [3]: 2.1; selectivity ratio [4]: 2.7; IC50 (Caco-2): 800 nM
CS(=O)(=O)C1C2CCC1CC(c1ccnc3c(-c4ccc(Cl)c(O)c4)c(-c4ccncc4)nn13)C2 (stereo unspecified) | 90 | 270 | < 2 | 
CCOC(=O)N1C2CCC1CC(c1ccnc3c(-c4ccc(C(F)(F)F)c5[nH]ncc45)c(-c4ccncc4)nn13)C2 (stereo unspecified) | 2300 | 2500 | 4.4 | 
CCN1C2CCC1CC(c1ccnc3c(-c4ccc(Cl)c5[nH]ncc45)c(-c4ccncc4)nn13)C2 (stereo unspecified) | 860 | 1090 | 4.4 | 
CCN1C2CCC1CC(c1ccnc3c(-c4ccc(Cl)c(O)c4)c(-c4ccncc4)nn13)C2 (stereo unspecified) | 230 | 320 | 0.5 | 
